“Also recorded” adds a separate entry of the source.
How the values were obtained:
[1] = tested on: human colorectal-cancer cells HT-29; assay: MTT ex vivo survival assay, HT-29; format: cell-based; conditions: HT-29 cell line; for half-maximal inhibitory concentration (IC50): isolated agents, stated in words only
Description: (§1) The Antroquinonol B (AnQB) and Zhankuic acid D (ZhAD) separately isolated from the Extraction A of Example 1 were added into the culture media of human colorectal-cancer cells, HT-29 or SW-480, to test for tumor cell survival by using anti-cancer drug screen model. This survival assay was carried out with the widely known MTT (3-[4,5-dimethylthiazol-2-yl]2,5-diphenyltetrazolium bromide) assay.
(§2) HT-29 cell line (purchased from ATCC) is a human colorectal adenocarcinoma cell line with epithelial morphology. These cells are sensitive to the chemotherapeutic drugs 5-fluorouracil and oxaliplatin, which are standard treatment options for colorectal cancer. In addition to being a xenograft tumor model for colorectal cancer, the HT-29 cell line is also used as an in-vitro model to study survival assay. And the other one, SW-480 is Dukes' type B, colorectal adenocarcinoma which is a difficult tumor with a low survival rate.
(§3) The human colorectal-cancer cells, HT-29 and SW-480 were cultivated in media containing fetal calf serum for 18 hours. The proliferated cells were washed once with PBS, then treated with 1× trypsin-EDTA and centrifuged at 1200 rpm for 45 minutes. The supernatant was discarded and the cell pellet was re-suspended in […] of fresh culture medium by gently shaking. The cells were placed in a 96-well plate.
(§4) Subsequently, the plates were read on an ELISA reader to determine the survival rates. The half maximal inhibitory concentration (IC50) values were calculated and results of ex vivo survival assay were thus obtained.
(§5) By using the same manner as the method described above, respectively human colorectal cancer cell line HT-29 and Sw-480 was cultured. After then, the pharmaceutical compositions A˜F of the present invention was applied separately, and then MTT assay for each sample was measured to assess the inhibition effectiveness of various cancer cell activity while using pharmaceutical compositions A˜F of the present invention.

[2] = tested on: human colorectal-cancer cells SW-480; assay: MTT ex vivo survival assay, SW-480; format: cell-based; conditions: SW-480 cell line; for half-maximal inhibitory concentration (IC50): isolated agents, stated in words only
Description: as §1, §2, §3, §4, §5

| SMILES | tumor cell survival rate / growth inhibition (MTT assay) [1] | half-maximal inhibitory concentration (IC50) [1] | tumor cell survival rate / growth inhibition (MTT assay) [2] | half-maximal inhibitory concentration (IC50) [2] |
| --- | --- | --- | --- | --- |
| C=C(CC[C@@H](C(=O)O)[C@H]1CC[C@@]2(C)C3=CC[C@H]4C(C)(C)[C@@H](O)CC[C@]4(C)C3=CC[C@]12C)C(C)C | can inhibit the growth of colorectal cancer cell; also recorded: can decrease the survival rates | relatively low | can inhibit the growth of colorectal cancer cell; also recorded: can decrease the survival rates | relatively low |
| COC1=C(OC)[C@H](O)[C@H](C/C=C(\C)CC/C=C(/C)C/C=C/C(C)(C)O)[C@@H](C)C1=O [Antroquinonol B] | can inhibit the growth of colorectal cancer cell; also recorded: can decrease the survival rates | relatively low | can inhibit the growth of colorectal cancer cell; also recorded: can decrease the survival rates | relatively low |
